Source: US20150212068A1, “Cholyl-L-Lysyl-Fluorescein Assay” (Novassay SA, priority 2012, published 2015)
Entries after “also recorded” stand apart in the source; their conditions may differ.

How the values were obtained:
[1] = Stability of CLF in whole human blood at 37° C. (Test 1), HPLC-MS/MS; type: in vitro ADME; details: for CLF concentration: whole human blood spiked 100 ng/ml, mean ± SEM (n = 2); for CLF remaining: whole human blood, vs To
Procedure: Fifty microliters (50 μl) of the working solution of CLF were added to 5 ml of human EDTA blood. The final concentration of CLF in blood was of 100 ng/ml. One aliquot of 1 ml of blood was taken (To) and the remaining solution was incubated at 37° C. in a water bath for 30 min, 120 min and 24 h. At the end of each incubation time, 1 ml of blood was taken and plasma was prepared by centrifugation of samples at 2000 g (4° C.) for 10 min. Two equal aliquots of 200 μl were prepared and stored at −70° C. until further analysis. […] Thus, a stock solution of IS at 100 μg/ml in acetonitrile was 50-fold diluted in acetonitrile in order to obtain a final concentration of 2 μg/ml. Then, 200 μl of this solution were added to each plasma sample in order to precipitate the proteins. Samples were vortexed/mixed and centrifuged 5 min at 20,000 g (4° C.). After centrifugation, the clear supernatant (around 250 μl) was transferred into 1.2 ml HPLC glass vials and sealed. Samples were placed into the refrigerated autosampler and 20 μl were injected into the HPLC-MS/MS system. Test samples were injected twice. […] The injected volume of sample was 20 μl and the “full loop” mode was applied. The temperature of the analytical column was kept at 30° C. CLF and its IS were separated on an Acclaim 120 C18 column (5 μm, 2.1×100 mm, Dionex) by elution with a linear gradient of acetonitrile in water as described in Table 6. An ion trap mass spectrometer equipped with an ESI interface was operated in the positive ionization mode. For each compound, the most abundant ion formed in MS was selected for MS/MS fragmentations. In order to increase the sensitivity and the specificity of the method, the MRM mode was selected. The most specific daughter ions formed in MS/MS were used for quantification.

[2] = Stability (LTD samples) of CLF in plasma measured with the CLF ELISA; type: in vitro ADME, human
Procedure: These conditions were used for all assays described in Phase 2a (above) and Phase 2b (below). See Appendix B and C for buffer and conjugate formulations respectively: • Add 25 μl/well of sample or standard (0-1000 ng/ml CLF in Buffer #24) to the wells of a streptavidin-coated microtitre plate (NovAssay, F2SAC). • Add 100 μl/well of fluorescein-biotin (Sigma B9431) at 20 ng/ml in Buffer #24+0.2% w/v ANS (Sigma 10417). • Add 100 μl/well of anti-fluorescein HRP (NovAssay, DV047/17-3) at 100 ng/ml in Buffer #24. • Incubate the plate for 30 minutes at room temperature. • Wash the plate 3 times with 800 μl/well Buffer #29 and tap the plate dry. • Add 100 μl/well of SureBlue Reserve TMB Substrate (KPL) and incubate the plate for 10 minutes at room temperature. • Stop the substrate reaction by adding 100 μl/well of 1M HCl and read the absorbance at 450 nm wavelength (ThermoFisher Scientific, Multiskan FC).
The samples provided (LTD) included 8 “standards” (no details of their preparation were given, apart from the concentration which ranged from 0 to 100 ng/ml) and samples which were presumed to be stability samples (no details of their preparation were given). The stability work appeared to have been undertaken on 3 individual donor samples. Note, that 2 of the donor samples were heavily haemolysed.

serum proteins = assay: Recovery of spiked CLF from individual human serum samples, classical and labelled-antibody competitive immunoassays; type: in vitro ADME; details: inferred from low recovery of CLF spiked into serum
Procedure: Streptavidin-coated microtitre plate Biotinylated anti-fluorescein antibody, “BJ/C” (NovAssay, using HyTest mouse monoclonal anti-fluorescein, cat code 5F3 2A3 (conjugate ref. DV038/182-1) or AbD Serotec sheep polyclonal anti-fluorescein, cat code 640001 (ref. DV038/182-2) is bound to the plate CLF from the sample competes with CLF-horseradish peroxidase, “CJ/C” (CLF-HRP; NovAssay, DV047/14) for the biotinylated anti-fluorescein antibody Bound CLF-HRP is measured colorimetrically using tetramethylbenzidine (TMB) substrate.
• Streptavidin-coated microtitre plate • Biotin-fluorescein (Sigma B9431) is bound to the plate • CLF from the sample competes with bound biotin-fluorescein for an anti-fluorescein-HRP conjugate (NovAssay, using HyTest mouse monoclonal anti-fluorescein, cat code 5F3 2A3 (conjugate ref. DV047/17-3) • Bound anti-fluorescein-HRP is measured colorimetrically using tetramethylbenzidine (TMB) substrate. […]
Given the success of achieving workable standard curves in both formats, 100 ng/ml of CLF was spiked into a number of individual human serum samples, and the percentage CLF recovery calculated (e.g. 50 ng/ml=50%). […]

## CC(CCC(=O)NC(CCCCNC(=S)Nc1ccc(-c2c3ccc(=O)cc-3oc3cc(O)ccc23)c(C(=O)O)c1)C(=O)O)C1CCC2C3C(O)CC4CC(O)CCC4(C)C3CC(O)C12C [CLF, Cholyl-L-Lysyl-Fluorescein]
[1]; 37° C., 24 hours, 100 ng/ml
  CLF stability in whole human blood: stable during 24 h; also recorded: stable over 24 hours
[1]; whole blood spiked with 100 ng/ml, 37° C., 0-24 h
  plasmatic concentrations measured: 165.1 to 180.3 ng/mL
[1]; whole blood spiked with CLF, plasma prepared by centrifugation
  repartition of CLF in blood: mainly distributed in the plasmatic fraction; also recorded: mainly distributed in the plasma fraction
[1]; whole blood, 37° C., up to 24 h
  percentage of compound remaining (by comparing with content at To), lowest over incubation: at least 104.1%
[1]; 37° C., 0.0 hours, plasmatic concentration
  CLF concentration: 165.1 ± 2.6 ng/mL
[1]; 37° C., 0.5 hours
  CLF concentration: 171.9 ± 6.7 ng/mL
  CLF remaining: 104.1%
[1]; 37° C., 2.0 hours
  CLF concentration: 180.3 ± 7.4 ng/mL
  CLF remaining: 109.2%
[1]; 37° C., 24.0 hours
  CLF concentration: 173.8 ± 1.7 ng/mL
  CLF remaining: 105.3%
[1]; 37° C., 0.0 hours
  CLF remaining: 100.0%
[2]; LTD plasma stability samples, 4° C. vs RT (~18-22° C.)
  comparison of storage temperatures: 4 °C storage is slightly better than RT
[2]; LTD plasma stability samples, 24 hours
  percent loss of CLF: approximately 10%
[2]; PLASMA 2.4, T0
  percent loss of CLF: 0%
[2]; PLASMA 2.4, T30
  percent loss of CLF: −11%
[2]; PLASMA 2.4, T120
  percent loss of CLF: −12%
[2]; PLASMA 2.4, T24 h
  percent loss of CLF: −11%
[2]; PLASMA 2.5.1, T0
  percent loss of CLF: 0%
[2]; PLASMA 2.5.1, T30, 4° C.
  percent loss of CLF: 3%
[2]; PLASMA 2.5.1, T30 RT
  percent loss of CLF: −5%
[2]; PLASMA 2.5.1, T120 4° C.
  percent loss of CLF: 1%
[2]; PLASMA 2.5.1, T120 RT
  percent loss of CLF: −6%
[2]; PLASMA 2.5.1, T24 h 4° C.
  percent loss of CLF: −9%
[2]; PLASMA 2.5.1, T24 h RT
  percent loss of CLF: −13%
[2]; PLASMA 2.5.2, T0
  percent loss of CLF: 0%
[2]; PLASMA 2.5.2, T30, 4° C.
  percent loss of CLF: 10%
[2]; PLASMA 2.5.2, T30 RT
  percent loss of CLF: 3%
[2]; PLASMA 2.5.2, T120 4° C.
  percent loss of CLF: 10%
[2]; PLASMA 2.5.2, T120 RT
  percent loss of CLF: 1%
[2]; PLASMA 2.5.2, T24 h 4° C.
  percent loss of CLF: −5%
[2]; PLASMA 2.5.2, T24 h RT
  percent loss of CLF: −14%
Serum proteins
  binding of CLF to serum proteins: binds to serum proteins; also recorded: significant protein binding
